The values below come from patent US12606546B2, “Small molecule inhibitors of calcium channel activity and uses thereof” (Arizona Board of Regents on Behalf of the University of …, priority 2020, dated 2026).

Like-named read-outs stand apart in the source and are kept apart here.

For assay [1], the system named is high voltage activated calcium channels. Put plainly: Fura-2AM calcium imaging, 90 mM KCl-evoked Ca2+ influx in DRG neurons. The note with it: separated enantiomers, data not shown.
Assay [2] concerns total calcium current in small- to medium-sized DRG neurons. Put plainly: Whole-cell patch clamp of total Ca2+ currents in DRG neurons. The class given is cell-based, rat. The note with it: for Activation V1/2 / Activation k (slope factor) / Inactivation V1/2 / Inactivation k (slope factor): Boltzmann fit, mean ± SEM; for peak calcium current density: overnight (DMSO −96.91±12.39); for reduction in Ca2+ currents at peak current density: overnight, compared to 0.1% DMSO. The method, then:
Recordings were obtained from acutely dissociated DRG neurons as described in Bellampalli et al. Patch-clamp recordings were performed at room temperature (22-24° C.). Currents were recorded using an EPC 10 Amplifier-HEKA (HEKA Elektronik, Ludwigshafen, Germany) linked to a computer with Patchmaster software. DRG neurons were incubated overnight (˜16-24 h) with 20 μM of 3-25-R and 3-14-3-S.
For total calcium current (ICa^2+) recordings, the external solution consisted of the following (in mM): 110 N-methyl-D-glucamine, 10 BaCl2, 30 TEA-Cl, 10 HEPES, 10 glucose, 0.001 TTX (pH 7.29 adjusted with NaOH, and mOsm/L=310). Patch pipettes were filled with an internal solution containing (in mM): 150 […], 10 HEPES, 5 Mg-ATP, and 5 BAPTA, (pH 7.24 adjusted with CsOH, and from a holding potential of −90 mV to obtain the current-voltage (I-V) relation. Normalization of currents to each cell's capacitance (pF) was performed to allow for collection of current density data. For I-V curves, functions were fitted to data using a non-linear least squares analysis. I-V curves were fitted using double Boltzmann functions: f=a+g1/(1+exp((x−V1/21)/k1))+g2/(1+exp(−(x−V1/22)/k2)) where x is the prepulse potential, V1/2 is the mid-point potential and k is the corresponding slope factor for single Boltzmann functions. Double Boltzmann fits were used to describe the shape of the curve, not to imply the existence of separate channel populations. Numbers 1 and 2 simply indicate first and second mid-points; a along with g are fitting parameters.
Activation curves were obtained from the I-V curves by dividing the peak current at each depolarizing step by the driving force according to the equation: G=I/(Vmem−Erev), where I is the peak current, Vmem is the membrane potential and Erev is the reversal potential. The conductance (G) was normalized against the maximum conductance (Gmax). Steady-state inactivation (SSI) curves were obtained by applying an H-infinity protocol that consisted of 1.5-seconds conditioning pre-pulses from −100 to +30 mV in 10-mV increments followed by a 20-millisecond test pulse to +10 mV. Inactivation curves were obtained by dividing the peak current recorded at the test pulse by the maximum current (Imax). Activation and SSI curves were fitted with the Boltzmann equation.

The target of the next assay is T1, CaV3.1 (Homo sapiens, UniProt O43497).
T1 construct: expressed in transfected cells; host or cells: HEK293T
Put plainly: Whole-cell patch clamp in HEK293T cells transiently expressing CaV3.1. In kind it is cell-based. The note with it: for effect on CaV3.1 mediated currents: 50 μM. The method, then: (§1) Human embryonic kidney HEK293T cells were cultured in DMEM supplemented with 10% fetal bovine serum and 1% penicillin/streptomycin sulfate, maintained in standard conditions (5% CO2, 37° C., saturated humidity). Cells were transfected with 2 μg of either of the channel cDNAs using Lipofectamine 2000 when cell confluence reached 70-90%. Four to six hours after transfection, cells were seeded onto poly-l-lysine-coated coverslips. Positively transfected cells were indicated by the fluorescence of co-transfected enhanced green fluorescent protein (0.2 μg). All the experiments were performed 36 hours after cell transfection.
(§2) For electrophysiological recording, the external solution contained (in mM): 105 CsCl, TEA-Cl, 2 CaCl2), 1 MgCl2, and 10 glucose (pH 7.4 adjusted with CsOH, and mOsm/L=295-305). The internal solution consisted of (in mM): 120 CsMeSO4, 11 EGTA, 2 Mg-ATP, and HEPES (pH 7.4 adjusted with CsOH, and mOsm/L=295-305). All experiments were conducted at room temperature (22-24° C.). The T-type calcium currents were elicited by a depolarization to −20 or −10 mV for 200-millisecond from a hold potential of −90 mV. Data were collected by the Patchmaster software in a HEKA EPC-10 USB patch-clamp system. Voltage errors were minimized by using 80% series resistance compensation. The capacitance artifact was canceled by using the computer-controlled circuitry of the patch-clamp amplifier. The concentration-response curves of the test compounds on CaV3 channels were fitted to a Hill equation to estimate the potency of the compounds (IC50).
In general terms: In patch-clamp work, channel activity is measured electrically.

The target in another assay is T2, CaV3.2 (Homo sapiens, UniProt O95180).
T2 construct: expressed in transfected cells; host or cells: HEK293T
Put plainly: Whole-cell patch clamp in HEK293T cells transiently expressing CaV3.2. The class given is cell-based. The note with it: for effect on CaV3.2 mediated currents: 50 μM. On the procedure: as §1, §2

The target in a further assay is T3, CaV3.3 (Homo sapiens, UniProt Q9P0X4).
T3 construct: expressed in transfected cells; host or cells: HEK293T
Put plainly: Whole-cell patch clamp in HEK293T cells transiently expressing CaV3.3. The class given is cell-based. The note with it: for effect on CaV3.3 mediated currents: 50 μM. The method, then: as §1, §2

Assay [3] deals with healthy rats. Put plainly: ALGOGram: healthy rats, paw pressure test. The note with it: 0.4 μg/μl i.t., 120 min after treatment. The class given is in vivo, rat. On the procedure:
(§3) The analgesic profile of 3-14-3-S was analyzed by an in vivo screening tool, ALGOGram™ (ANS Biotech, Riom, France). This platform allowed for obtaining information about the effects of compounds in 5 different pain areas (Acute and tonic pain, inflammatory pain, neuropathic pain, postoperative pain and visceral pain), by comparing their activity on a battery of 10 validated behavioral pain models with an ANS Biotech reference historical database (Table 1). Assessment of the efficacy, and analgesic effects of a single administration (0.4 μg/μl, i.t.) 3-14-3-S was analyzed in the rat models of. Tail flick test in healthy rats, paw pressure test in healthy rats, acetic acid-induced writhing, formalin test, Bennett model of peripheral mononeuropathy, oxaliplatin-induced neuropathy, carrageenan-induced mechanical hyperalgesia, kaolin-induced arthritis, Brennan model of incisional pain; and trinitrobenzene sulfonic acid (TNBS)-induced visceral hypersensitivity (Table 2).
(§4) Testing: 120 min after treatment. n=4/model/test (excepted for 3-14-3-S-treated group in Oxaliplatin model n=3). Results are expressed for each group as a percentage of activity calculated from the mean value of the vehicle-treated animals and compared to naïve animals, control paw or cut-off value, depending on the test (from the ANS Biotech historical database). Ligand Docking

Assay [4] concerns healthy rats. Nature of the assay: ALGOGram: healthy rats, tail flick test. The class given is in vivo, rat. The note with it: 0.4 μg/μl i.t., 120 min after treatment. On the procedure: as §3, §4
In general terms: In hot-plate and tail-flick tests a longer latency is read as antinociception.

For assay [5], the system named is rats. Put plainly: ALGOGram: acetic acid test (abdominal cramps). In kind it is in vivo, rat. The note with it: 0.4 μg/μl i.t., 120 min after treatment. The method, then:
as §3, §4

In assay [6] the test system is rats. Nature of the assay: ALGOGram: formalin test (paw licking time). The class given is in vivo, rat. The note with it: 0.4 μg/μl i.t., 120 min after treatment. On the procedure:
as §3, §4

In assay [7] the test system is rats. Nature of the assay: ALGOGram: Bennett model of peripheral mononeuropathy (paw pressure test). The class given is in vivo, rat. The note with it: 0.4 μg/μl i.t., 120 min after treatment. The method, then:
as §3, §4

The subject of assay [8] is rats. Nature of the assay: ALGOGram: oxaliplatin-induced neuropathy (paw immersion test). In kind it is in vivo, rat. The note with it: 0.4 μg/μl i.t., 120 min after treatment, n=3. The method, then: as §3, §4
Assay [9] concerns rats. Put plainly: ALGOGram: carrageenan-induced mechanical hyperalgesia (paw pressure test). In kind it is in vivo, rat. The note with it: 0.4 μg/μl i.t., 120 min after treatment. On the procedure:
as §3, §4

The subject of assay [10] is rats. Nature of the assay: ALGOGram: TNBS-induced visceral hypersensitivity (colonic distension). In kind it is in vivo, rat. The note with it: 0.4 μg/μl i.t., 120 min after treatment. On the procedure:
as §3, §4

In assay [11] the target is influenza virus polymerase PA-PB1 protein-protein interactions (Influenza A virus, UniProt P03433). The note with it: previously tested [93]; cited from earlier work.
Assay [12] concerns rats. The note with it: oxaliplatin, paw immersion test, 100 mg/kg p.o., T60 min; cited from earlier work.
Assay [13] concerns rats. The note with it: carrageenan, paw pressure test, 30 mg/kg p.o., T60 min; cited from earlier work. Background: The carrageenan paw model is a standard test of acute inflammation.
Assay [14] concerns rats. The note with it: kaolin, gait score, 30 mg/kg p.o., T60 min; cited from earlier work.
Assay [15] concerns healthy rats. The note with it: paw pressure test, 4 mg/kg s.c., T30 min; cited from earlier work.
The test system of assay [16] is healthy rats. The note with it: tail flick test, 4 mg/kg s.c., T30 min; cited from earlier work.
Assay [17] deals with rats. The note with it: formalin test, 4 mg/kg s.c., T30 min, cited from earlier work.
In assay [18] the test system is rats. The note with it: Brennan model, electronic Von Frey test, 4 mg/kg s.c., T30 min; cited from earlier work.

T2 sequence (O95180 whole entry): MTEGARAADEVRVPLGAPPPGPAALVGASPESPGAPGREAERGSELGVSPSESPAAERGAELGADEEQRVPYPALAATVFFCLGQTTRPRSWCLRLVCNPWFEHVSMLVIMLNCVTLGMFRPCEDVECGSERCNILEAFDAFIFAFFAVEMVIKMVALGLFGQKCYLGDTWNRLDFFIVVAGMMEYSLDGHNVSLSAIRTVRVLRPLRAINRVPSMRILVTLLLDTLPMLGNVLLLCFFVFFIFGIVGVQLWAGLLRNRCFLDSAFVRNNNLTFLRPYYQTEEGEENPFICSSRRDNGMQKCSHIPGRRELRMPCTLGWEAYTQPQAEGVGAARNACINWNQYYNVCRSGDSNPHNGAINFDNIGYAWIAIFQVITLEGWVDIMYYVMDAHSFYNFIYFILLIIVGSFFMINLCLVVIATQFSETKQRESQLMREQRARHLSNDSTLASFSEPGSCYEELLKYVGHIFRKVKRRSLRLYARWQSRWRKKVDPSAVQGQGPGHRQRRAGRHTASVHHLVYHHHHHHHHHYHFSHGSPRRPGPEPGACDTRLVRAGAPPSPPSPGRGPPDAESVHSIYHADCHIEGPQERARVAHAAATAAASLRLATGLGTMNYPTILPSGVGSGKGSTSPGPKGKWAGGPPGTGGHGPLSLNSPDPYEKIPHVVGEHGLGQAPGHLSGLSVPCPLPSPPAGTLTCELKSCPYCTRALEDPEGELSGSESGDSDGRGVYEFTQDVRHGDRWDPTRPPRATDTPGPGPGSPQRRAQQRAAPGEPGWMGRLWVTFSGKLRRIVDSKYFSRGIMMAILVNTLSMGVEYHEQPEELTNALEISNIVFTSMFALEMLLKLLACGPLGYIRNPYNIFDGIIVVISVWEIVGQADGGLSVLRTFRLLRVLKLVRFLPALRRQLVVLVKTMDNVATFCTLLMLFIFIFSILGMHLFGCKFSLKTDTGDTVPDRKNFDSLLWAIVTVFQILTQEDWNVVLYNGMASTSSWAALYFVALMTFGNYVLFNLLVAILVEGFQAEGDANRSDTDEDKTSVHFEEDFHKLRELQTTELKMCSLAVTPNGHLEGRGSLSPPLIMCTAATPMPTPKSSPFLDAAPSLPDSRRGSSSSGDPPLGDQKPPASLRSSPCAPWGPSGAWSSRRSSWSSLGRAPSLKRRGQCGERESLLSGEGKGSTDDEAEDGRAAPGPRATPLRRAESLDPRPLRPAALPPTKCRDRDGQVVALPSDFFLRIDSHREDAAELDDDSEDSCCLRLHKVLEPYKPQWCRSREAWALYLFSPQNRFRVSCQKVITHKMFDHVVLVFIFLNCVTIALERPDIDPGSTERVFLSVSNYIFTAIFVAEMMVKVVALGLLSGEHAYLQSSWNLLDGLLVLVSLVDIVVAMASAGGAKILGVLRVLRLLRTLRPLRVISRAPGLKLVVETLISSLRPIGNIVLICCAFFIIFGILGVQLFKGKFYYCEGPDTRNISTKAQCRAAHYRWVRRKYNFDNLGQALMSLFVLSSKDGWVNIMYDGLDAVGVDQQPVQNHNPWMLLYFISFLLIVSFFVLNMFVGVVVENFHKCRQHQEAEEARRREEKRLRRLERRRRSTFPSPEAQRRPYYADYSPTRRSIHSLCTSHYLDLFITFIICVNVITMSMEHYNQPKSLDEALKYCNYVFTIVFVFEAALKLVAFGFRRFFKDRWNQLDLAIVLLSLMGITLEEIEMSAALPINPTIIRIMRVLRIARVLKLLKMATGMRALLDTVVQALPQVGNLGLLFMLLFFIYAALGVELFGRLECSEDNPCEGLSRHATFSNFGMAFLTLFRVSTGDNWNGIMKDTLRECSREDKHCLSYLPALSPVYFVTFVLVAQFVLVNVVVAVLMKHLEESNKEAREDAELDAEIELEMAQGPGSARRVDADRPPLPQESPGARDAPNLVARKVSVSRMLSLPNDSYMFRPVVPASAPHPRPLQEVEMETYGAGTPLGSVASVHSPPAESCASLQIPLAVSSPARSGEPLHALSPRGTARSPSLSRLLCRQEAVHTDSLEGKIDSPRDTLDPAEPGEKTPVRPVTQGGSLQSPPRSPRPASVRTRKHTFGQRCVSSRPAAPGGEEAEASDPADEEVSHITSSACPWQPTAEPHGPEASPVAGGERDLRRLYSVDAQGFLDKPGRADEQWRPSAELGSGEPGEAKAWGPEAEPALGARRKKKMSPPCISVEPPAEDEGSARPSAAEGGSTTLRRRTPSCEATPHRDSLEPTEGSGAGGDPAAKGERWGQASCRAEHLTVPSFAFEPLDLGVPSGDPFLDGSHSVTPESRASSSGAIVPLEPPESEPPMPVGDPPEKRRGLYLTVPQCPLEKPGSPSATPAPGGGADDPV
T1 sequence (O43497 whole entry): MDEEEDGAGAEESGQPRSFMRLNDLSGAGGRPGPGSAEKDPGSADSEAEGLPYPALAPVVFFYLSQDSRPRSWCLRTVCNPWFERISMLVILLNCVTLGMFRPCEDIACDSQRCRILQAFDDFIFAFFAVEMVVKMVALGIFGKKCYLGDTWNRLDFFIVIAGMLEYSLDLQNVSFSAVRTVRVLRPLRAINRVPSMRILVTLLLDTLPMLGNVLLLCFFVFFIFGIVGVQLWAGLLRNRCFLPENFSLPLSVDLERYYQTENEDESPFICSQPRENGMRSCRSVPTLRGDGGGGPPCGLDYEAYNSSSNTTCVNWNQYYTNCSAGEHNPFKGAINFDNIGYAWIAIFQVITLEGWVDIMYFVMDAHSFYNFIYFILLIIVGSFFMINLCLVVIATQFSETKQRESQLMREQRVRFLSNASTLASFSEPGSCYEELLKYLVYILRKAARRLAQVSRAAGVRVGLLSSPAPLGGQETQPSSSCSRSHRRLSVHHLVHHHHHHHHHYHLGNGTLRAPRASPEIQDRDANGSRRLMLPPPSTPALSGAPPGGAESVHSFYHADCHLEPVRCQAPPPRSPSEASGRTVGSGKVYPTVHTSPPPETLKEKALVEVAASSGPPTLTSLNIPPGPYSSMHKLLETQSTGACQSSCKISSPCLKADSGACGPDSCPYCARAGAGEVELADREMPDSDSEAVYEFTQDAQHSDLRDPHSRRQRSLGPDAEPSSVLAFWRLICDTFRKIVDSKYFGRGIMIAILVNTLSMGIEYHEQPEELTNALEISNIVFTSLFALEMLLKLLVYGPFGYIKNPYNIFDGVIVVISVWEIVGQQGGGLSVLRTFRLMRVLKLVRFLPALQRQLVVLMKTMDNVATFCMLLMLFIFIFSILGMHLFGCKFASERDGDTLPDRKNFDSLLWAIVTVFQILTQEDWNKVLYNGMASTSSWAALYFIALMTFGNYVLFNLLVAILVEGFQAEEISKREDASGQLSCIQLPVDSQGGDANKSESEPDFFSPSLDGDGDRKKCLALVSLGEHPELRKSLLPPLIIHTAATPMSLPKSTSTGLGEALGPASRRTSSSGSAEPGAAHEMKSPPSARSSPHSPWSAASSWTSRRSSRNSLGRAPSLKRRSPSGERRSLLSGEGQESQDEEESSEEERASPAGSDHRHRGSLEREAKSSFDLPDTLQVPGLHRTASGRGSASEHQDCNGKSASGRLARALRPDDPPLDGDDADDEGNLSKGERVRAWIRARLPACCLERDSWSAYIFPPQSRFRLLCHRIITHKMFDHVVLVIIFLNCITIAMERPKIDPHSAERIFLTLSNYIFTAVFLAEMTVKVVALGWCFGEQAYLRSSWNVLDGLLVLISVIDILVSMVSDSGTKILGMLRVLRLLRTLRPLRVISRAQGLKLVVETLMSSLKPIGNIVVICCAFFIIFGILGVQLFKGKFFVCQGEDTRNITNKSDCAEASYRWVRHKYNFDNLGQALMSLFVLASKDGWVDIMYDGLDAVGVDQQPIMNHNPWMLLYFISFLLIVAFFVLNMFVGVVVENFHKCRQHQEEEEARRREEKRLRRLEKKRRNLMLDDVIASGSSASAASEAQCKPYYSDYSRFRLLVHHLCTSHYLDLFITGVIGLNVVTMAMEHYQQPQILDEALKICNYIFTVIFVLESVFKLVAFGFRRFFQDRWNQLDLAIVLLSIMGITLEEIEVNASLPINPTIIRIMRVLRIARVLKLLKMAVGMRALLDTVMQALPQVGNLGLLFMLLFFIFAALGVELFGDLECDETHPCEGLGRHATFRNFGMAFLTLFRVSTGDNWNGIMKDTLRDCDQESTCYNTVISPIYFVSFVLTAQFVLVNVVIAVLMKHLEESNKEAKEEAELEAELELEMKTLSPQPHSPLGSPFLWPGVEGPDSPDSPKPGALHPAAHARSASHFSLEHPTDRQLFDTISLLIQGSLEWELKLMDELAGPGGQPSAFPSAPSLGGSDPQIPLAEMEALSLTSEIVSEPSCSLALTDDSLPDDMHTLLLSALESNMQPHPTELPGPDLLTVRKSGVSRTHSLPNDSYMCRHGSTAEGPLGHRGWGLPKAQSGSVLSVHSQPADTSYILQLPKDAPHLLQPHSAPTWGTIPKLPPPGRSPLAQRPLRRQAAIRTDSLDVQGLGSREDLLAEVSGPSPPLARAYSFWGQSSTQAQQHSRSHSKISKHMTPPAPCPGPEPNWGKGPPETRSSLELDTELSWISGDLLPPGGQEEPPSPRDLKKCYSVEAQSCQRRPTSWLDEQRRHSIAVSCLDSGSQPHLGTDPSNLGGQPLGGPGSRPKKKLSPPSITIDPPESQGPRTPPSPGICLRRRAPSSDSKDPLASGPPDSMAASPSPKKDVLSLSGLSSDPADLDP

Turning to `O=C(Nc1cccc([C@H](c2nnnn2Cc2ccccc2)N2CCN(C(=O)c3ccco3)CC2)c1)c1ccc(Br)cc1` [1-159-2-R], in [1], the “Ca2+ influx triggered with 90 mM KCl (response, normalized)” value came out at 67.37±2.294%.

For `Cc1ccc([C@H](c2nnnn2Cc2ccccc2)N2CCN(C(=O)c3ccccc3)CC2)s1` [3-14-3-S], the “Activation V1/2” value in assay [2] is reported as 4.083 ± 2.038 mV. Further, in [2], the “Activation k (slope factor)” value is listed as 9.308 ± 1.780. For the same molecule, in assay [2], the “Inactivation V1/2” value is −25.246 ± 2.129 mV. For the same molecule, the “Inactivation k (slope factor)” value in assay [2] was −12.570 ± 2.035. Also, the “peak calcium current density” value in assay [2] is −41.70±7.927 pA/pF. Moreover, the “reduction in Ca2+ currents at peak current density” value in [2] is roughly 56.97%. Besides, the “effect on CaV3.1 mediated currents” value on CaV3.1 is given as “inhibited”. Also, the IC50 against CaV3.1 (depolarizing voltage of −10 mV) amounted to 23 µM; on CaV3.2 (depolarizing voltage of −10 mV) it was 35.6 µM; against CaV3.3 (depolarizing voltage of −10 mV), 26.3 µM. Moreover, the “effect on CaV3.2 mediated currents” value at CaV3.2 is listed as “inhibited”. The “effect on CaV3.3 mediated currents” value on CaV3.3 is listed as “inhibited”. The “Percentage of activity vs. vehicle” value with healthy rats [3] came to 3%; in the assay with healthy rats [4], 5%; in the assay with rats [5] it was 33%; with rats [6] (paw licking time early phase), 16%; in the assay with rats [6] (paw licking time late phase), 36%; with rats [7] it was 14%. Moreover, the entries for the “Percentage of activity vs. vehicle” value in the assay on rats [8], with rats [9] and in the assay with rats [10] were 6%, 29% and −11%, respectively. The “Ca2+ influx triggered with 90 mM KCl (response, normalized)” value in [1] is on record as 87.25±2.245%.

As for `Cc1cccc(C)c1-n1nnnc1[C@@H](Cc1ccccc1)N1CCN(S(=O)(=O)c2ccccc2)CC1` [3-25-R], in [2], the “Activation V1/2” value worked out at 2.383 ± 2.037 mV, the “Activation k (slope factor)” value worked out at 9.659 ± 1.798, the “Inactivation V1/2” value is reported as −26.709 ± 2.655 mV and the “Inactivation k (slope factor)” value was −15.208 ± 2.714. For the same molecule, in [2], the “peak calcium current density” value is listed as −54.1±8.385 pA/pF and the “reduction in Ca2+ currents at peak current density” value is roughly 44.17%. Besides, at CaV3.1, the “effect on CaV3.1 mediated currents” value is reported as “negligible effects”. For the same molecule, the “effect on CaV3.2 mediated currents” value on CaV3.2 is listed as “negligible effects”. In addition, at CaV3.3, the “effect on CaV3.3 mediated currents” value is given as “negligible effects”. The “Ca2+ influx triggered with 90 mM KCl (response, normalized)” value in [1] worked out at 62.43±1.967%.

As for `C[C@@H](c1ccccc1)n1nnnc1[C@H](c1ccsc1)N1CCC(n2c(=O)[nH]c3ccccc32)CC1` [5bl, 1-{1-[(S)-{1-[(1S)-1-phenylethyl]-1H-1,2,3,4-tetrazol-5-yl}(thiophen-3-yl)methyl]piperidin-4-yl}-2,3-dihydro-1H-1,3-benzodiazol-2-one], in assay [11], the “inhibition of influenza virus polymerase PA-PB1 protein-protein interactions” value was “active”.

In the case of `CNCC[C@H](Oc1cccc2ccccc12)c1cccs1` [Duloxetine], the “Percentage of activity vs. vehicle, internal reference” value (“Percentage … internal reference” below) in the assay on rats [12] is listed as 66%.

With `COc1ccc2c(c1)c(CC(=O)O)c(C)n2C(=O)c1ccc(Cl)cc1` [Indomethacin], the “Percentage … internal reference” value is 92% in the assay on rats [13] and 64% in the assay with rats [14].

As to `CN1CC[C@]23c4c5ccc(O)c4O[C@H]2[C@@H](O)C=C[C@H]3[C@H]1C5` [Morphine], the “Percentage … internal reference” value with healthy rats [15] is on record as 67%; in the assay on healthy rats [16], 66%; in the assay with rats [17] (early phase), 65%; with rats [17] (late phase), 77%; in the assay on rats [18] it was 107%.

Usually IC50 stands for the concentration needed to halve the response being measured. Read a high IC50 as a need for much substance.
